Laboratory results: patent US12371454B2, “Cyclic peptide compound having Kras inhibitory action” (priority 2019, dated 2025)
Starred links: 1 amine or outer side, 2 acyl side, 3 side chain; linkers in the order of their positions; H or OH if unused. Positions of bridges follow the written chain, without caps; N, C: chain ends. Non-standard residues stand in square brackets, D forms with d. Residues, ends and D or L forms follow the SMILES beside them. *: point of attachment. hPhe(3-Cl-4-CF3) = N[C@@H](CCc1ccc(C(F)(F)F)c(Cl)c1)C(=O)O; NMeDab(N,N-(CH2CF2CH2)) = CN[C@@H](CCN1CC(F)(F)C1)C(=O)O; hPhe(4-CF3) = N[C@@H](CCc1ccc(C(F)(F)F)cc1)C(=O)O; Phe(3-CF3) = N[C@@H](Cc1cccc(C(F)(F)F)c1)C(=O)O; Phe(4-CF3) = N[C@@H](Cc1ccc(C(F)(F)F)cc1)C(=O)O; X17 = Cc1cncc(C[C@@H](C(=O)[*:2])N(C)[*:1])c1; NMePhe(4-Cl) = CN[C@@H](Cc1ccc(Cl)cc1)C(=O)O; NMePhe(2-CN) = CN[C@@H](Cc1ccccc1C#N)C(=O)O; NMePhe(4-Me) = CN[C@@H](Cc1ccc(C)cc1)C(=O)O; NMedβ3hAla = C[C@H](CC(=O)[*:2])N(C)[*:1]; NMeGly(cPent) = CN[C@H](C(=O)O)C1CCCC1; Phe(3-I) = N[C@@H](Cc1cccc(I)c1)C(=O)O; Pro(4,4-F2) = O=C(O)[C@@H]1CC(F)(F)CN1; X26 = O=C([C@@H]1CCC[C@H]1N[*:1])[*:2]; Phe(2-Me) = Cc1ccccc1C[C@H](N)C(=O)O; Gly(cPent) = N[C@H](C(=O)O)C1CCCC1; NMeCha = CN[C@@H](CC1CCCCC1)C(=O)O; NMeChg = CN[C@H](C(=O)O)C1CCCCC1; NMeF = CN[C@@H](Cc1ccccc1)C(=O)O; NMeβAla = CN(CCC(=O)[*:2])[*:1]; NMeD = CN[C@@H](CC(=O)O)C(=O)O; NMeL = CN[C@@H](CC(C)C)C(=O)O; NMeV = CN[C@H](C(=O)O)C(C)C; d(β3hA) = C[C@@H](N)CC(=O)O; Pip = O=C(O)[C@@H]1CCCCN1; dPip = O=C(O)[C@H]1CCCCN1; NMeA = CN[C@@H](C)C(=O)O; NMeAib = CNC(C)(C)C(=O)O; Nle = CCCC[C@H](N)C(=O)O; Piperidide = C1CCN(*)CC1; Pyrrolidide = C1CCN(*)C1; Ac5c = NC1(C(=O)O)CCCC1; Aze = O=C(O)[C@@H]1CCN1; Ac4c = NC1(C(=O)O)CCC1; Sar = CNCC(=O)O

biological target: T1, Kras and SOS1 (biotin-tagged human Kras loaded with GDP, His-tagged human SOS1) (Homo sapiens, UniProt P01116, G12D); test: Protein-protein interaction inhibition between Kras and SOS1 (KrasGl2D-SOS PPI) using AlphaScreen; type: binding; details: AlphaScreen; biotin-tagged human Kras loaded with GDP, His-tagged human SOS1; read-out: KRAS G12D-SOS PPI IC50
T1 construct: made in house; host or cells: E. coli (stated for Kras only)
Outline: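 AlphaScreen format: Ni donor beads capture His-SOS1, streptavidin acceptor beads capture biotinylated Kras (E. coli-expressed, GDP-loaded post-purification). Excite 680 nm, read 520-620 nm.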

T1 sequence (P01116 1-188 isoform P01116-2 G12D): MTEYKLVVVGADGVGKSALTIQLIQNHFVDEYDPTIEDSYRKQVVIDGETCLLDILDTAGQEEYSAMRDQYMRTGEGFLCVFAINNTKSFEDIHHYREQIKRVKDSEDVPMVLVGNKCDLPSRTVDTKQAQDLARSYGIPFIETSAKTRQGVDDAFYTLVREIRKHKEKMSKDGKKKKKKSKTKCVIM

Compound	IC50 [nM]
CC[C@H](C)[C@@H]1NC(=O)[C@H](C)N(C)C(=O)C[C@@H](C(=O)N2CCCCC2)N(C)C(=O)[C@H](C(C)C)N(C)C(=O)[C@H](CC(C)C)NC(=O)[C@H](CCN2CC(F)(F)C2)N(C)C(=O)[C@H](CCc2ccc(C(F)(F)F)c(Cl)c2)NC(=O)CN(C)C(=O)[C@H](CC2CCCCC2)N(C)C(=O)CN(C)C(=O)CN(C)C1=O [Compound 331] ([NMeA]I[Sar][Sar][NMeCha][Sar][hPhe(3-Cl-4-CF3)][NMeDab(N,N-(CH2CF2CH2))]L[NMeV][NMeD]-Piperidide; lactam N-11)	30
CC(C)C[C@H]1C(=O)N[C@@H](C2CCCC2)C(=O)N(C)CC(=O)N(C)CC(=O)N(C)[C@@H](CC2CCCCC2)C(=O)N(C)CC(=O)N[C@@H](CCc2ccc(C(F)(F)F)c(Cl)c2)C(=O)N2CCC[C@H]2C(=O)NC2(CCCC2)C(=O)N(C)[C@@H](C(C)C)C(=O)N[C@H](C)CC(=O)N1C [Compound 333] (cyclo([Ac5c][NMeV][d(β3hA)][NMeL][Gly(cPent)][Sar][Sar][NMeCha][Sar][hPhe(3-Cl-4-CF3)]P))	110
CC[C@H](C)[C@@H]1NC(=O)[C@H](CC(C)C)N(C)C(=O)C[C@@H](C(=O)N2CCCCC2)N(C)C(=O)[C@H](CC(C)C)NC(=O)C(C)(C)N(C)C(=O)[C@H](Cc2ccccc2C)NC(=O)[C@H](Cc2cccc(I)c2)NC(=O)CN(C)C(=O)[C@H](Cc2ccc(C)cc2)N(C)C(=O)[C@@H]2CCN2C(=O)CN(C)C1=O [Compound 335] ([NMeL]I[Sar][Aze][NMePhe(4-Me)][Sar][Phe(3-I)][Phe(2-Me)][NMeAib]L[NMeD]-Piperidide; lactam N-11)	67
CC[C@H](C)[C@@H]1NC(=O)[C@H](CC(C)C)N(C)C(=O)C[C@@H](C(=O)N2CCCCC2)N(C)C(=O)[C@H](CC(C)C)NC(=O)C(C)(C)N(C)C(=O)[C@H](Cc2ccc(C(F)(F)F)cc2)NC(=O)[C@H](Cc2cccc(I)c2)NC(=O)CN(C)C(=O)[C@H](CC2CCCCC2)N(C)C(=O)CN(C)C(=O)CN(C)C1=O [Compound 336] ([NMeL]I[Sar][Sar][NMeCha][Sar][Phe(3-I)][Phe(4-CF3)][NMeAib]L[NMeD]-Piperidide; lactam N-11)	93
CC[C@H](C)[C@@H]1NC(=O)[C@H](CC(C)C)N(C)C(=O)C[C@@H](C(=O)N2CCCCC2)N(C)C(=O)[C@H](C2CCCCC2)N(C)C(=O)C2(CCCC2)NC(=O)[C@H](Cc2cncc(C)c2)N(C)C(=O)[C@H](CCc2ccc(C(F)(F)F)c(Cl)c2)NC(=O)CN(C)C(=O)[C@H](CC2CCCCC2)N(C)C(=O)[C@@H]2CCN2C(=O)[C@H](C)N(C)C1=O [Compound 338] ([NMeL]I[NMeA][Aze][NMeCha][Sar][hPhe(3-Cl-4-CF3)][X17][Ac5c][NMeChg][NMeD]-Piperidide; lactam N-11)	220
CC[C@H](C)[C@@H]1NC(=O)[C@H](CC(C)C)N(C)C(=O)[C@@H]2CCC[C@H]2NC(=O)[C@H](C(C)C)N(C)C(=O)C2(CCCC2)NC(=O)[C@@H]2CCCN2C(=O)[C@H](CCc2ccc(C(F)(F)F)c(Cl)c2)NC(=O)CN(C)C(=O)[C@H](CC2CCCCC2)N(C)C(=O)CN(C)C(=O)CN(C)C1=O [Compound 347] (cyclo([Ac5c][NMeV][X26][NMeL]I[Sar][Sar][NMeCha][Sar][hPhe(3-Cl-4-CF3)]P))	27
CC[C@H](C)[C@@H]1NC(=O)[C@H](C)N(C)C(=O)C[C@@H](C(=O)N2CCCCC2)N(C)C(=O)[C@H](C(C)C)N(C)C(=O)C2(CCCC2)NC(=O)[C@@H]2CCCN2C(=O)[C@H](CCc2ccc(C(F)(F)F)c(Cl)c2)NC(=O)[C@H]2CCCCN2C(=O)[C@H](CC2CCCCC2)N(C)C(=O)[C@@H]2CCN2C(=O)[C@H](C)N(C)C1=O [Compound 349] ([NMeA]I[NMeA][Aze][NMeCha][dPip][hPhe(3-Cl-4-CF3)]P[Ac5c][NMeV][NMeD]-Piperidide; lactam N-11)	190
CCCC[C@@H]1NC(=O)[C@H](CCc2ccc(C(F)(F)F)c(Cl)c2)NC(=O)CN(C)C(=O)[C@H](Cc2ccc(Cl)cc2)N(C)C(=O)[C@@H]2CCN2C(=O)CN(C)C(=O)[C@H]([C@@H](C)CC)NC(=O)[C@@H]2CCCCN2C(=O)C[C@@H](C(=O)N2CCCCC2)N(C)C(=O)[C@H](CC(C)C)NC(=O)C(C)(C)N(C)C1=O [Compound 352] ([Pip]I[Sar][Aze][NMePhe(4-Cl)][Sar][hPhe(3-Cl-4-CF3)][Nle][NMeAib]L[NMeD]-Piperidide; lactam N-11)	5.5
CC[C@H](C)[C@@H]1NC(=O)[C@H](CC(C)C)N(C)C(=O)C[C@@H](C)N(C)C(=O)[C@H](C(C)C)N(C)C(=O)C2(CCCC2)NC(=O)[C@@H]2CCCN2C(=O)[C@H](CCc2ccc(C(F)(F)F)c(Cl)c2)NC(=O)CN(C)C(=O)[C@H](Cc2ccccc2C#N)N(C)C(=O)CN(C)C(=O)CN(C)C1=O [Compound 357] (cyclo([Ac5c][NMeV][NMedβ3hAla][NMeL]I[Sar][Sar][NMePhe(2-CN)][Sar][hPhe(3-Cl-4-CF3)]P))	22
CC[C@H](C)[C@@H]1NC(=O)[C@H](CC(C)C)N(C)C(=O)C[C@@H](C)N(C)C(=O)[C@H](C2CCCC2)N(C)C(=O)C2(CCC2)NC(=O)[C@@H]2CC(F)(F)CN2C(=O)[C@H](CCc2ccc(C(F)(F)F)c(Cl)c2)NC(=O)CN(C)C(=O)[C@H](Cc2ccc(C)cc2)N(C)C(=O)CN(C)C(=O)CN(C)C1=O [Compound 359] (cyclo([Ac4c][NMeGly(cPent)][NMedβ3hAla][NMeL]I[Sar][Sar][NMePhe(4-Me)][Sar][hPhe(3-Cl-4-CF3)][Pro(4,4-F2)]))	3.2
CC[C@H](C)[C@@H]1NC(=O)[C@H](CC(C)C)N(C)C(=O)C[C@@H](C(=O)N(C)C)N(C)C(=O)[C@H](C2CCCC2)N(C)C(=O)C2(CCCC2)NC(=O)[C@@H]2CCCN2C(=O)[C@H](CCc2ccc(C(F)(F)F)c(Cl)c2)NC(=O)CN(C)C(=O)[C@H](Cc2ccc(C)cc2)N(C)C(=O)[C@@H]2CCN2C(=O)[C@H](C)NC1=O [Compound 363, (5S,8S,11S,15S,18S,23aS,29S,35S,37aS)-8-((S)-sec-butyl)-29-(3-chloro-4-(trifluoromethyl)phenethyl)-18-cyclopentyl-11-isobutyl-N,N,5,12,16,19,33,36-octamethyl-35-(4-methylbenzyl)-4,7,10,13,17,20,23,28,31,34,37-undecaoxotetratriacontahydro-2H,4H-spiro[azeto[2,1-u]pyrrolo[2,1-i][1,4,7,10,13,16,19,22,25,28,31]undecaazacyclotetratriacontine-21,1′-cyclopentane]-15-carboxamide] ([NMeL]IA[Aze][NMePhe(4-Me)][Sar][hPhe(3-Cl-4-CF3)]P[Ac5c][NMeGly(cPent)][NMeD]-NMe2; lactam N-11)	0.65
CC[C@H](C)[C@@H]1NC(=O)[C@H](CC(C)C)NC(=O)C[C@@H](C(=O)N2CCCCC2)N(C)C(=O)[C@H](C(C)C)N(C)C(=O)C2(CCCC2)NC(=O)[C@@H]2CCCN2C(=O)[C@H](CCc2ccc(C(F)(F)F)c(Cl)c2)NC(=O)CN(C)C(=O)[C@H](CC2CCCCC2)N(C)C(=O)[C@@H]2CCN2C(=O)[C@H](C)N(C)C1=O [Compound 368] (LI[NMeA][Aze][NMeCha][Sar][hPhe(3-Cl-4-CF3)]P[Ac5c][NMeV][NMeD]-Piperidide; lactam N-11)	2.7
CC[C@H](C)[C@@H]1NC(=O)CCN(C)C(=O)CN(C)C(=O)[C@H](C2CCCC2)N(C)C(=O)C2(CCCC2)NC(=O)[C@@H]2CCCN2C(=O)[C@H](CCc2ccc(C(F)(F)F)c(Cl)c2)NC(=O)CN(C)C(=O)[C@H](CC2CCCCC2)N(C)C(=O)CN(C)C(=O)CN(C)C1=O [Compound 369] (cyclo([Ac5c][NMeGly(cPent)][Sar][NMeβAla]I[Sar][Sar][NMeCha][Sar][hPhe(3-Cl-4-CF3)]P))	350
CC[C@H](C)[C@@H]1NC(=O)[C@H](C)N(C)C(=O)C[C@@H](C(=O)N2CCCC2)NC(=O)[C@H](CC(C)C)NC(=O)[C@H](Cc2ccccc2)N(C)C(=O)[C@H](CC(C)C)NC(=O)[C@H](CCc2ccc(C(F)(F)F)cc2)NC(=O)CN(C)C(=O)[C@H](Cc2ccc(Cl)cc2)N(C)C(=O)CN(C)C(=O)CN(C)C1=O [Compound 372] ([NMeA]I[Sar][Sar][NMePhe(4-Cl)][Sar][hPhe(4-CF3)]L[NMeF]LD-Pyrrolidide; lactam N-11)	130
CC[C@H](C)[C@@H]1NC(=O)[C@H](CC(C)C)N(C)C(=O)C[C@@H](C)N(C)C(=O)[C@H](C2CCCCC2)N(C)C(=O)C2(CCC2)NC(=O)[C@@H]2CC(F)(F)CN2C(=O)[C@H](CCc2ccc(C(F)(F)F)c(Cl)c2)NC(=O)CN(C)C(=O)[C@H](Cc2ccc(C)cc2)N(C)C(=O)CN(C)C(=O)CN(C)C1=O [Compound 375] (cyclo([Ac4c][NMeChg][NMedβ3hAla][NMeL]I[Sar][Sar][NMePhe(4-Me)][Sar][hPhe(3-Cl-4-CF3)][Pro(4,4-F2)]))	12
CC[C@H](C)[C@@H]1NC(=O)[C@H](CC(C)C)N(C)C(=O)C[C@@H](C(=O)N2CCCCC2)N(C)C(=O)[C@H](CC(C)C)NC(=O)C(C)(C)N(C)C(=O)[C@H](Cc2cccc(C(F)(F)F)c2)NC(=O)[C@H](Cc2cccc(I)c2)NC(=O)CN(C)C(=O)[C@H](Cc2ccc(C)cc2)N(C)C(=O)CN(C)C(=O)CN(C)C1=O [Compound 376] ([NMeL]I[Sar][Sar][NMePhe(4-Me)][Sar][Phe(3-I)][Phe(3-CF3)][NMeAib]L[NMeD]-Piperidide; lactam N-11)	44
